In US8455497B2, “Inhibitors of aspartyl protease” (Vertex Pharmaceuticals Incorporated, priority 1999, dated 2013):
Like-named read-outs stand apart in the source and are kept apart here.

Tested on: HIV-1 (strain IIIB)
Experiment: Antiviral activity assay in MT4 cells (propidium iodide based)
Format: cell-based
Experimental: Antiviral Activity Assay in MT4 Cells
Aliquots of the test compounds were serially diluted in medium (RPMI 1640, 10% fetal calf serum (FCS), and gentamycin) in 96-well plates (Costar 3598) using a Cetus Pro/Pette. Exponentially growing MT4 cells were harvested and centrifuged at 1000 rpm for 10 min in a Jouan centrifuge (model CR 4 12). Cell pellets were resuspended in fresh medium (RPMI 1640, 20% FCS, 20% IL-2, and gentamycin) to a density of 5×10^5 cells/ml. Cell aliquots were infected by the addition of HIV-1 (strain IIIB) diluted to give a viral multiplicity of infection of 100×TCID50. A similar cell aliquot was diluted with medium to provide a mock-infected control. Cell infection was allowed to proceed for 1 hr at 37° in a tissue culture incubator with humidified 5% CO2 atmosphere. After the 1 hr incubation the virus/cell suspensions were diluted 6-fold with fresh medium, and 125 μl of the cell suspension was added to each well of the plate containing pre-diluted compound. Plates were then placed in a tissue culture incubator with humidified 5% CO2 for 5 days. At the end of the incubation period, 27 μl of 5% Nonidet-40 was added to each well of the incubation plate. After thorough mixing with a Costar multitip pipetter, 60 μl of the mixture was transferred to filter-bottomed 96-well plates. The plates were analyzed in an automated assay instrument (Screen Machine, Idexx Laboratories). The assay makes use of a propidium iodide dye to estimate the DNA content of each well.
The anti-viral potency in MT-4 cells of the compounds set forth in Tables 1 and 2 was determined using the above technique.

[1] = wild type HIV-1 virus, MT4 cells, read-out: Wildtype virus - IC50
[2] = MT-4 cells, HIV-1 strain IIIB, 5 days, read-out: IC50 (Antiviral Activity of Compounds of the Invention)
[3] = Human immunodeficiency virus 1, MT4, 120 h, MT-4 cells, HIV-1 strain IIIB, 5 days, read-out: IC50 (Antiviral Activity of Compounds of the Invention)
[4] = Human immunodeficiency virus 1, IIIB, wild type HIV-1 virus, MT4 cells, read-out: Wildtype virus - IC50

CC(C)CN(C[C@@H](O)[C@H](Cc1ccc(OCCC(F)(F)F)cc1)NC(=O)O[C@H]1CO[C@H]2OCC[C@H]21)S(=O)(=O)c1ccc2c(c1)OCO2 [Compound 217]
IC50 [1]: 1 to 10 nM

CC(C)CN(CC(O)C(Cc1ccc(OCCN2CCOCC2)cc1)NC(=O)OC1COC2OCCC12)S(=O)(=O)c1ccc(N)cc1 (centres unmarked) [Compound 29]
IC50 [2]: 10 to 100 nM

CC(C)CN(CC(O)C(Cc1ccc(OCc2ccccc2)cc1)NC(=O)OC1COC2OCCC12)S(=O)(=O)c1ccc(N)cc1 (centres unmarked) [Compound 26]
IC50 [2]: < 1 nM

CC(C)CN(C[C@@H](O)[C@H](Cc1ccc(OCCCN2CCOCC2)cc1)NC(=O)O[C@H]1CO[C@H]2OCC[C@H]21)S(=O)(=O)c1ccc2c(c1)OCO2 [Compound 49, Bis-THF Methylenedioxybenzenesulfonamide Propylmorpholine Tethered Product]
IC50 [3]: 1 to 10 nM

CC(C)CN(C[C@@H](O)[C@H](Cc1ccc(OCCc2ccncc2)cc1)NC(=O)O[C@H]1CO[C@H]2OCC[C@H]21)S(=O)(=O)c1ccc2c(c1)OCO2 [Compound 211]
IC50 [1]: 1 to 10 nM

CC(C)CN(CC(O)C(Cc1ccc(OCc2ccccn2)cc1)NC(=O)OC1COC2OCCC12)S(=O)(=O)c1ccc(N)cc1 (centres unmarked) [Compound 31]
IC50 [2]: 1 to 10 nM

CC(C)(CCCC#N)CN(C[C@@H](O)[C@H](Cc1ccc(OCc2ccccc2)cc1)NC(=O)OC1COCOC1)S(=O)(=O)c1ccc2c(c1)OCO2 [Compound 306, 1,3-Dioxan-5-yl (1S,2R)-3-[(1,3-benzodioxol-5-ylsulfonyl)(5-cyano-2,2-dimethylpentyl)amino]-1-[4 (benzyloxy)benzyl]-2-hydroxypropylcarbamate]
IC50 [4]: 10 to 100 nM

Cc1cc(COc2ccc(CC(NC(=O)OC3COC4OCCC34)C(O)CN(CC(C)C)S(=O)(=O)c3ccc(N)cc3)cc2)no1 (centres unmarked) [Compound 33]
IC50 [2]: 10 to 100 nM

CC(C)CN(C[C@@H](O)[C@H](Cc1ccc(OCCCC(F)(F)F)cc1)NC(=O)O[C@H]1CO[C@H]2OCC[C@H]21)S(=O)(=O)c1ccc2c(c1)OCO2 [Compound 216]
IC50 [1]: 1 to 10 nM

COCCN(CCOC)CCOc1ccc(C[C@H](NC(=O)OC(C)(C)C)[C@H](O)CN(CC(C)C)S(=O)(=O)c2ccc3c(c2)OCO3)cc1 [Compound 18, Boc Methylenedioxybenzenesulfonamide Bis-Methoxyethylamine Tethered Product]
IC50 [3]: 10 to 100 nM

COCCN(CCOC)CCOc1ccc(C[C@H](NC(=O)O[C@H]2CO[C@H]3OCC[C@H]32)[C@H](O)CN(CC(C)C)S(=O)(=O)c2ccc3c(c2)OCO3)cc1 [Compound 51, Bis-THF Methylenedioxybenzenesulfonamide Bis-Methoxyethylamine Tethered Product]
IC50 [3]: 1 to 10 nM

CC(C)CN(C[C@@H](O)[C@H](Cc1ccc(OCC(=O)N2CCOCC2)cc1)NC(=O)OC(C)(C)C)S(=O)(=O)c1ccc2c(c1)OCO2 [Compound 21, Boc methylenedioxybenzenesulfonamide Acetylmorpholine Tethered Product]
IC50 [3]: 10 to 100 nM

CC(C)CN(CC(O)C(Cc1ccc(OCCCN2CCOCC2)cc1)NC(=O)OC1COC2OCCC12)S(=O)(=O)c1ccc(N)cc1 (centres unmarked) [Compound 30]
IC50 [2]: 10 to 100 nM

Cc1cc(COc2ccc(CC(NC(=O)OC3COC4OCCC34)C(O)CN(CC(C)C)S(=O)(=O)c3cccc(N)c3)cc2)no1 (centres unmarked) [Compound 35]
IC50 [2]: 10 to 100 nM

CC(C)CN(CC(O)C(Cc1ccc(OCCN2CCOCC2)cc1)NC(=O)OC1COC2OCCC12)S(=O)(=O)c1cccc(N)c1 (centres unmarked) [Compound 37]
IC50 [2]: 10 to 100 nM

COCCN(CCOC)CCOc1ccc(CC(NC(=O)OC(C)(C)C)C(O)CN(CC(C)(C)CCC#N)S(=O)(=O)c2ccc3c(c2)OCO3)cc1 (centres unmarked) [Compound 68]
IC50 [2]: > 100 nM

Cc1cc(C)n(COc2ccc(C[C@H](NC(=O)O[C@H]3CO[C@H]4OCC[C@H]43)[C@H](O)CN(CC(C)C)S(=O)(=O)c3ccc4c(c3)OCO4)cc2)n1 [Compound 56, Bis-THF Methylenedioxybenzenesulfonamide 1-methyl-3,5-dimethylpyrazole Tethered Product]
IC50 [3]: 10 to 100 nM

CC(C)CN(CC(O)C(Cc1ccc(O)cc1)NC(=O)OC1COC2OCCC12)S(=O)(=O)c1ccc(N)cc1 (centres unmarked) [Compound 32]
IC50 [2]: 10 to 100 nM

CC(C)CN(CC(O)C(Cc1ccc(OCCCN2CCOCC2)cc1)NC(=O)OC(C)(C)C)S(=O)(=O)c1ccc(N)cc1 (centres unmarked) [Compound 11]
IC50 [2]: > 100 nM

CC(C)CN(C[C@@H](O)[C@H](Cc1ccc(OCCCN2CCOCC2)cc1)NC(=O)OC(C)(C)C)S(=O)(=O)c1ccc2c(c1)OCO2 [Compound 20, Boc Methylenedioxybenzenesulfonamide Propylmorpholine Tethered Product]
IC50 [3]: 10 to 100 nM

CNC(=O)OCCCC(C)(C)CN(C[C@@H](O)[C@H](Cc1ccc(OCc2ccccc2)cc1)NC(=O)OC1CCOC1)S(=O)(=O)c1ccc2c(c1)OCO2 (some centres unmarked) [Compound 362]
IC50 [4]: 10 to 100 nM

COCCN(CCOC)CCOc1ccc(CC(NC(=O)OC(C)(C)C)C(O)CN(CC(C)C)S(=O)(=O)c2cccc(N)c2)cc1 (centres unmarked) [Compound 13]
IC50 [2]: > 100 nM

CC(C)CN(C[C@@H](O)[C@H](Cc1ccc(OCCc2ccsc2)cc1)NC(=O)O[C@H]1CO[C@H]2OCC[C@H]21)S(=O)(=O)c1ccc2c(c1)OCO2 [Compound 208]
IC50 [1]: 10 to 100 nM

COCCN(CCOC)CCOc1ccc(CC(NC(=O)OC2COC3OCCC23)C(O)CN(CC(C)C)S(=O)(=O)c2ccc(N)cc2)cc1 (centres unmarked) [Compound 27]
IC50 [2]: > 100 nM

CCC(CC)ON(C[C@@H](O)[C@H](Cc1ccc(OCc2ccccc2)cc1)NC(=O)OC1COCOC1)S(=O)(=O)c1ccc2c(c1)OCO2 [Compound 330, 1,3-Dioxan-5-yl (1S,2R)-3-[(1,3-benzodioxol-5-ylsulfonyl) (1-ethylpropoxy)amino]-1-[4-(benzyloxy)benzyl]-2-hydroxypropylcarbamate]
IC50 [4]: 10 to 100 nM

CC(C)CN(C[C@@H](O)[C@H](Cc1ccc(OCC(=O)N2CCOCC2)cc1)NC(=O)O[C@H]1CO[C@H]2OCC[C@H]21)S(=O)(=O)c1ccc2c(c1)OCO2 [Compound 50, Bis-THF Methylenedioxybenzenesulfonamide Acetylmorpholine Tethered Product]
IC50 [3]: 10 to 100 nM

COCCN(CCOC)CCOc1ccc(CC(NC(=O)OC2COCOC2)C(O)CN(CC(C)C)S(=O)(=O)c2cccc(N)c2)cc1 (centres unmarked) [Compound 25]
IC50 [2]: 10 to 100 nM

CC(C)CN(C[C@@H](O)[C@H](Cc1ccc(OCCN2CCOCC2)cc1)NC(=O)OC(C)(C)C)S(=O)(=O)c1ccc2c(c1)OCO2 [Compound 17, Boc Methylenedioxybenzenesulfonamide Ethylmorpholine Tethered Product]
IC50 [3]: > 100 nM

COCCN(CCOC)CCOc1ccc(CC(NC(=O)OC(C)(C)C)C(O)CN(CC(C)(C)CCC#N)S(=O)(=O)c2ccc(N)cc2)cc1 (centres unmarked) [Compound 67]
IC50 [2]: > 100 nM

CC(C)CN(C[C@@H](O)[C@H](Cc1ccc(OCCNC(=O)OC(C)C)cc1)NC(=O)O[C@H]1CO[C@H]2OCC[C@H]21)S(=O)(=O)c1ccc2c(c1)OCO2 [Compound 248]
IC50 [1]: 1 to 10 nM

CC(C)CN(C[C@@H](O)[C@H](Cc1ccc(OCc2ccccc2)cc1)NC(=O)O[C@H]1CO[C@H]2OCC[C@H]21)S(=O)(=O)c1ccc2c(c1)OC(F)(F)O2 [Compound 340, (3R,3aS,6aR)-hexahydrofuro[2,3-b]furan-3-yl (1S,2R)-1-[4-(benzyloxy)benzyl]-3-[[(2,2-difluoro-1,3-benzodioxol-5-yl)sulfonyl](isobutyl)amino]-2-hydroxypropylcarbamate]
IC50 [4]: 10 to 100 nM

CCOC(=O)NCCOc1ccc(C[C@H](NC(=O)O[C@H]2CO[C@H]3OCC[C@H]32)[C@H](O)CN(CC(C)C)S(=O)(=O)c2ccc3c(c2)OCO3)cc1 [Compound 245]
IC50 [1]: 1 to 10 nM

CC(C)(CCC#N)CN(CC(O)C(Cc1ccc(OCc2ccccc2)cc1)NC(=O)OC1COC2OCCC12)S(=O)(=O)c1ccc(N)cc1 (centres unmarked) [Compound 71]
IC50 [2]: 1 to 10 nM

Cc1cc(S(=O)(=O)N(CC(C)C)CC(O)C(Cc2ccc(OCc3ccccc3)cc2)NC(=O)OC2COC3OCCC23)ccc1O (centres unmarked) [Compound 38]
IC50 [2]: < 1 nM

COCCN(CCOC)CCOc1ccc(CC(NC(=O)OC2CCOC2)C(O)CN(CC(C)C)S(=O)(=O)c2ccc3c(c2)OCO3)cc1 (centres unmarked) [Compound 24]
IC50 [2]: 10 to 100 nM

Cc1ncsc1CCOc1ccc(C[C@H](NC(=O)O[C@H]2CO[C@H]3OCC[C@H]32)[C@H](O)CN(CC(C)C)S(=O)(=O)c2ccc3c(c2)OCO3)cc1 [Compound 213]
IC50 [1]: 1 to 10 nM

Cc1cccc(C)c1OCC(=O)N[C@@H](Cc1ccc(OS(=O)(=O)c2ccc3c(c2)OCO3)cc1)[C@H](O)CN(CC(C)C)S(=O)(=O)c1ccc2c(c1)OCO2 [Compound 350, 4-((2S,3R)-4-[(1,3-benzodioxol-5-ylsulfonyl)(isobutyl)amino]-2-{[(2,6-dimethylphenoxy)acetyl]amino}-3-hydroxybutyl)phenyl 1,3-benzodioxole-5-sulfonate]
IC50 [4]: 10 to 100 nM

CCOC(=O)NCCCCOc1ccc(C[C@H](NC(=O)O[C@H]2CO[C@H]3OCC[C@H]32)[C@H](O)CN(CC(C)C)S(=O)(=O)c2ccc3c(c2)OCO3)cc1 [Compound 247]
IC50 [1]: 1 to 10 nM
